Holding throughout (format): in vivo
For series [1], the system named is Balb/c mice. The experiment in a line: DNCB-induced atopic dermatitis model in mice, oral gavage. The settings on record: 50 mg/kg twice a day oral gavage, vs model group. On the procedure:
Drug preparation: appropriate amount of powder of sample for test was weighed accurately and put in a sample preparation tube. Purified water was added and sonication was performed until the sample was completely dissolved, and a concentration of 5 mg/ml (based on active ingredient) was prepared, and it was administered within 15 minutes after preparation.
Experimental animals: Balb/c mice were purchased from Sichuan Academy of Traditional Chinese Medicine, 27 mice in total.
Grouping: Balb/c mice (27 mice in total) were randomly divided into three groups, 9 mice in each group, which were blank group, model group and administration group respectively.
Modeling: 300 μl of 1% DNCB was applied to the abdomen of mice in the model group and administration group, and 0.5% DNCB was applied to the ears every other day after 7 d, and lasted for 31 days.
Administration: administration was carried out after 12 days of modeling. Administration group: dosage and frequency of administration: 50 mg/kg (based on active ingredient), twice a day. Model group: the same dose of vehicle was given. The administration cycle was 3 weeks (12 d-31 d). The method of administration: oral gavage.
• (1) General observation: ear thickness and spleen/body weight ratio. At the end point of the test, the body weight of mice was weighed, and the left and right ear thickness (mm) of mice was measured, and then the mice were subjected to gross anatomy, and the spleen of mice was weighed to calculate the spleen/body weight ratio of mice. • (2) Serum: IgE. At the end point of the test, blood was collected from the orbit of mice, and the total IgE in the serum of mice was detected (ELISA method). • (3) Histopathology: HE staining of the ear (to measure ear epidermal thickness) and toluidine blue staining (to measure the number of mast cells in the ear epidermis).
HE staining of ears: the fixed mouse ear tissue was dehydrated by automatic dehydrator and embedded, and then sliced. After dewaxing the slices to water, hematoxylin staining was performed until blue appeared; after elution, eosin staining was performed for sealing, and finally microscopy and image acquisition were carried out.
The above specimens were subjected to the procedures of dehydration, trimming, embedding, slicing, staining, sealing, and other procedures, and finally microscopy and image acquisition were carried out.

For series [2], the system named is normal animals. The experiment in a line: Spleen weight in normal animals. Conditions: no dose or method printed.
Series [3] has as its system C57BL/6J mice with alopecia areata. The experiment in a line: Alopecia areata mouse model, oral gavage. Conditions: 80 mg/kg twice a day oral gavage for 23 d. Here is the method: Drug preparation: appropriate amount of powder of test sample was weighed accurately and put in a sample preparation tube, then add purified water was added and sonification was performed until the sample was completely dissolved. A concentration of 8 mg/ml (based on active ingredient) was prepared, and it was administered within 15 minutes after preparation.
Experimental animals: 16 C57BL/6J mice with alopecia areata, female, 12 weeks old. They were purchased from Beijing Vital River Laboratory Animal Technology Co., Ltd. Animal inclusion criteria: mice with patchy and traceless hair loss, mainly with back hair loss and head hair loss.
Grouping and criteria: 14 C57BL/6J mice were enrolled in the groups, and 5 mice in the model group, 9 mice in the administration group (test sample). The overall situation of hair loss in the administration group was more serious than that in the model group.
Administration information: administration group: single dose: 80 mg/kg (based on active ingredient) twice a day for 23 d continuously; model group: equal doses of vehicle given. Method of administration: oral gavage.
Record of change rate of body weight and alopecia areata area: measured twice a week, weighed and observed with naked eyes on Monday and Thursday.
Spleen size and weight: at the end of the test, the body weight of mice was weighed, and then the mice were subjected to gross anatomy, the spleen of the mice was observed and weighed to calculate the spleen/body weight ratio of mice.

Where [4] appears, read: end point, vs model group, p<0.05.

Molecules are shown by their SMILES.

With `C=CC(=O)N(C)c1cc(Nc2ncc(Cl)c(NCCCNC(=O)c3ccc(C#N)cc3)n2)ccc1F` [test sample, N-(3-((5-chloro-2-((4-fluoro-3-(N-methylacrylamido)phenyl)amino)-4-pyrimidinyl)amino)propyl)-4-cyanobenzamide], the spleen/body weight ratio entry is reported as “significantly reduced” in series [1] (3 weeks (12 d-31 d), end point, # p<0.05) and “significantly lower” in series [3] (setting [4]). Moreover, the ear epidermal thickness result in series [1] (3 weeks, HE staining, # p<0.05) is “significantly decreased”. The “serum IgE level” value in series [1] (3 weeks, end point, ELISA, ## p<0.01) was “significantly decreased”. The “ear thickness (including the left ear and the right ear)” value in series [1] (3 weeks, end point, # p<0.05) is “significantly reduced”. For the same compound, the “number of mast cells in ear epidermis” value in series [1] (3 weeks, toluidine blue staining, # p<0.05) is recorded as “significantly decreased”. The “weight of spleen in normal animals” value in series [2] is on record as “does not reduce the weight of spleen”. Also, in series [3] (setting [4]), the spleen weight result was “significantly lower”. The alopecia areata area result in series [3] (better than model group (vehicle), p<0.01) was “significantly ameliorated”.

(Values after US20240382480A1, “PHARMACEUTICAL COMPOSITION CONTAINING JAK3/JAK1/TBK1 SELECTIVE INHIBITOR AND MEDICAL USE THEREOF” (SHENZHEN CHIPSCREEN BIOSCIENCES CO., LTD., priority 2021, published 2024).)
